According to PubChem BioAssay (NCI):
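GI50 = concentration required for 50% inhibition of growth. At the TGI there is no net growth.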

Legend:
Test in all cases: growth of human tumour cells (NCI), 384-well format
HOP-92 NSCLC = tested on: HOP-92 NSCLC
DU-145 prostate = tested on: DU-145 prostate
786-0 renal = tested on: 786-0 renal
SNB-19 CNS = tested on: SNB-19 CNS
A549 NSCLC = tested on: A549 NSCLC
SN12C renal = tested on: SN12C renal
PC-3 prostate = tested on: PC-3 prostate
HL-60(TB) leukemia = tested on: HL-60(TB) leukemia
UACC-62 melanoma = tested on: UACC-62 melanoma
MDA-MB-435 melanoma = tested on: MDA-MB-435 melanoma
HCT-116 colon = tested on: HCT-116 colon
NCI-H460 NSCLC = tested on: NCI-H460 NSCLC
HOP-62 NSCLC = tested on: HOP-62 NSCLC
OVCAR-8 ovarian = tested on: OVCAR-8 ovarian
A498 renal = tested on: A498 renal
OVCAR-5 ovarian = tested on: OVCAR-5 ovarian
OVCAR-4 ovarian = tested on: OVCAR-4 ovarian
CCRF-CEM leukemia = tested on: CCRF-CEM leukemia
OVCAR-3 ovarian = tested on: OVCAR-3 ovarian
LOX IMVI melanoma = tested on: LOX IMVI melanoma
SK-MEL-28 melanoma = tested on: SK-MEL-28 melanoma
UO-31 renal = tested on: UO-31 renal
NCI-H23 lung = tested on: NCI-H23 lung
TK-10 renal = tested on: TK-10 renal
SK-OV-3 ovarian = tested on: SK-OV-3 ovarian
EKVX NSCLC = tested on: EKVX NSCLC
NCI-H522 lung = tested on: NCI-H522 lung
MALME-3M melanoma = tested on: MALME-3M melanoma
MCF7 breast = tested on: MCF7 breast
HS 578T breast = tested on: HS 578T breast
K-562 leukemia = tested on: K-562 leukemia
HT29 colon = tested on: HT29 colon
SF-539 CNS = tested on: SF-539 CNS
MOLT-4 leukemia = tested on: MOLT-4 leukemia
SF-295 CNS = tested on: SF-295 CNS
SK-MEL-2 melanoma = tested on: SK-MEL-2 melanoma
HCC-2998 colon = tested on: HCC-2998 colon
NCI/ADR-RES ovarian = tested on: NCI/ADR-RES ovarian
CAKI-1 renal = tested on: CAKI-1 renal
SNB-75 CNS = tested on: SNB-75 CNS
KM12 colon = tested on: KM12 colon
COLO 205 colon = tested on: COLO 205 colon
ACHN renal = tested on: ACHN renal
NCI-H322M lung = tested on: NCI-H322M lung
T-47D breast = tested on: T-47D breast
RPMI-8226 leukemia = tested on: RPMI-8226 leukemia
SR leukemia = tested on: SR leukemia

`CC(C)(O)c1cc(Nc2cc(Oc3cn(C4CC4)nc3C3CCOCC3)ccn2)ccn1` was tested, and the GI50 (HOP-92 NSCLC) was 50.7 µM, the TGI (HOP-92 NSCLC) was > 100 µM and the GI50 (DU-145 prostate) was > 100 µM. For the same compound, the TGI (DU-145 prostate) was > 100 µM, the GI50 ([…]-0 renal) was > 72.6 µM and the TGI (786-0 renal) was > 100 µM. For the same compound, the GI50 (SNB-19 CNS) was > 100 µM, the TGI (SNB-19 CNS) was > 100 µM and the GI50 (A549 NSCLC) was 89.6 µM. For the same compound, the TGI (A549 NSCLC) was > 100 µM, the GI50 (SN12C renal) was > 82 µM and the TGI (SN12C renal) was > 100 µM. For the same compound, the GI50 (PC-3 prostate) was 76.1 µM, the TGI (PC-3 prostate) was > 100 µM and the GI50 (HL-60(TB) leukemia) was 15.5 µM. The TGI (HL-60(TB) leukemia) was 29.1 µM, the GI50 (UACC-62 melanoma) was 52.1 µM and the TGI (UACC-62 melanoma) was > 100 µM. The GI50 (MDA-MB-435 melanoma) was > 100 µM, the TGI (MDA-MB-435 melanoma) was > 100 µM and the GI50 (HCT-116 colon) was 46.6 µM. For the same compound, the TGI (HCT-116 colon) was > 100 µM, the GI50 (NCI-H460 NSCLC) was 38.8 µM and the TGI (NCI-H460 NSCLC) was > 100 µM. For the same compound, the GI50 (HOP-62 NSCLC) was > 100 µM, the TGI (HOP-62 NSCLC) was > 100 µM and the GI50 (OVCAR-8 ovarian) was > 100 µM. For the same compound, the TGI (OVCAR-8 ovarian) was > 100 µM, the GI50 (A498 renal) was 66.8 µM and the TGI (A498 renal) was > 100 µM. The GI50 (OVCAR-5 ovarian) was > 100 µM, the TGI (OVCAR-5 ovarian) was > 100 µM and the GI50 (OVCAR-4 ovarian) was > 100 µM. For the same compound, the TGI (OVCAR-4 ovarian) was > 100 µM, the GI50 (CCRF-CEM leukemia) was 46.7 µM and the TGI (CCRF-CEM leukemia) was > 100 µM. For the same compound, the GI50 (OVCAR-3 ovarian) was 52.8 µM, the TGI (OVCAR-3 ovarian) was > 100 µM and the GI50 (LOX IMVI melanoma) was 24.9 µM. The TGI (LOX IMVI melanoma) was 84.9 µM, the GI50 (SK-MEL-28 melanoma) was > 80.5 µM and the TGI (SK-MEL-28 melanoma) was > 100 µM. The GI50 (UO-31 renal) was > 100 µM, the TGI (UO-31 renal) was > 100 µM and the GI50 (NCI-H23 lung) was 23.1 µM. For the same compound, the TGI (NCI-H23 lung) was > 100 µM, the GI50 (TK-10 renal) was 67.2 µM and the TGI (TK-10 renal) was > 100 µM. For the same compound, the GI50 (SK-OV-3 ovarian) was 85.1 µM, the TGI (SK-OV-3 ovarian) was > 100 µM and the GI50 (EKVX NSCLC) was 51.6 µM. For the same compound, the TGI (EKVX NSCLC) was > 100 µM, the GI50 (NCI-H522 lung) was > 68.6 µM and the TGI (NCI-H522 lung) was > 100 µM. For the same compound, the GI50 (MALME-3M melanoma) was > 77.1 µM, the TGI (MALME-3M melanoma) was > 100 µM and the GI50 (MCF7 breast) was 29.9 µM. The TGI (MCF7 breast) was > 100 µM, the GI50 (HS 578T breast) was 37.7 µM and the TGI (HS 578T breast) was > 100 µM. The GI50 (K-562 leukemia) was 26.3 µM, the TGI (K-562 leukemia) was > 100 µM and the GI50 (HT29 colon) was 54.1 µM. For the same compound, the TGI (HT29 colon) was > 100 µM, the GI50 (SF-539 CNS) was > 100 µM and the TGI (SF-539 CNS) was > 100 µM. The GI50 (MOLT-4 leukemia) was 42.7 µM, the TGI (MOLT-4 leukemia) was > 100 µM and the GI50 (SF-295 CNS) was > 90 µM. The TGI (SF-295 CNS) was > 100 µM, the GI50 (SK-MEL-2 melanoma) was > 100 µM and the TGI (SK-MEL-2 melanoma) was > 100 µM. For the same compound, the GI50 (HCC-2998 colon) was > 100 µM, the TGI (HCC-2998 colon) was > 100 µM and the GI50 (NCI/ADR-RES ovarian) was > 100 µM. For the same compound, the TGI (NCI/ADR-RES ovarian) was > 100 µM, the GI50 (CAKI-1 renal) was 68.1 µM and the TGI (CAKI-1 renal) was > 100 µM. For the same compound, the GI50 (SNB-75 CNS) was > 91.6 µM, the TGI (SNB-75 CNS) was > 100 µM and the GI50 (KM12 colon) was 97.1 µM. For the same compound, the TGI (KM12 colon) was > 100 µM, the GI50 (COLO 205 colon) was 63.2 µM and the TGI (COLO 205 colon) was > 100 µM. For the same compound, the GI50 (ACHN renal) was > 100 µM, the TGI (ACHN renal) was > 100 µM and the GI50 (NCI-H322M lung) was > 100 µM. For the same compound, the TGI (NCI-H322M lung) was > 100 µM, the GI50 (T-47D breast) was 32.6 µM and the TGI (T-47D breast) was > 100 µM. The GI50 (RPMI-8226 leukemia) was 45.5 µM, the TGI (RPMI-8226 leukemia) was > 91 µM and the GI50 (SR leukemia) was 24.8 µM. For the same compound, the TGI (SR leukemia) was > 75.9 µM.
